Activity data for one molecule are collected here from ChEMBL document CHEMBL2074078, “Interaction of common azole antifungals with P glycoprotein” (Antimicrob Agents Chemother, 2002).

The data set deals with ATP-dependent translocase ABCB1 (Homo sapiens, UniProt P08183). In words: TP_TRANSPORTER: inhibition of Daunorubicin transport in G185 cells. In kind it is functional, cell-based. Particulars: mouse.
ATP-dependent translocase ABCB1, sequence (P08183 whole entry): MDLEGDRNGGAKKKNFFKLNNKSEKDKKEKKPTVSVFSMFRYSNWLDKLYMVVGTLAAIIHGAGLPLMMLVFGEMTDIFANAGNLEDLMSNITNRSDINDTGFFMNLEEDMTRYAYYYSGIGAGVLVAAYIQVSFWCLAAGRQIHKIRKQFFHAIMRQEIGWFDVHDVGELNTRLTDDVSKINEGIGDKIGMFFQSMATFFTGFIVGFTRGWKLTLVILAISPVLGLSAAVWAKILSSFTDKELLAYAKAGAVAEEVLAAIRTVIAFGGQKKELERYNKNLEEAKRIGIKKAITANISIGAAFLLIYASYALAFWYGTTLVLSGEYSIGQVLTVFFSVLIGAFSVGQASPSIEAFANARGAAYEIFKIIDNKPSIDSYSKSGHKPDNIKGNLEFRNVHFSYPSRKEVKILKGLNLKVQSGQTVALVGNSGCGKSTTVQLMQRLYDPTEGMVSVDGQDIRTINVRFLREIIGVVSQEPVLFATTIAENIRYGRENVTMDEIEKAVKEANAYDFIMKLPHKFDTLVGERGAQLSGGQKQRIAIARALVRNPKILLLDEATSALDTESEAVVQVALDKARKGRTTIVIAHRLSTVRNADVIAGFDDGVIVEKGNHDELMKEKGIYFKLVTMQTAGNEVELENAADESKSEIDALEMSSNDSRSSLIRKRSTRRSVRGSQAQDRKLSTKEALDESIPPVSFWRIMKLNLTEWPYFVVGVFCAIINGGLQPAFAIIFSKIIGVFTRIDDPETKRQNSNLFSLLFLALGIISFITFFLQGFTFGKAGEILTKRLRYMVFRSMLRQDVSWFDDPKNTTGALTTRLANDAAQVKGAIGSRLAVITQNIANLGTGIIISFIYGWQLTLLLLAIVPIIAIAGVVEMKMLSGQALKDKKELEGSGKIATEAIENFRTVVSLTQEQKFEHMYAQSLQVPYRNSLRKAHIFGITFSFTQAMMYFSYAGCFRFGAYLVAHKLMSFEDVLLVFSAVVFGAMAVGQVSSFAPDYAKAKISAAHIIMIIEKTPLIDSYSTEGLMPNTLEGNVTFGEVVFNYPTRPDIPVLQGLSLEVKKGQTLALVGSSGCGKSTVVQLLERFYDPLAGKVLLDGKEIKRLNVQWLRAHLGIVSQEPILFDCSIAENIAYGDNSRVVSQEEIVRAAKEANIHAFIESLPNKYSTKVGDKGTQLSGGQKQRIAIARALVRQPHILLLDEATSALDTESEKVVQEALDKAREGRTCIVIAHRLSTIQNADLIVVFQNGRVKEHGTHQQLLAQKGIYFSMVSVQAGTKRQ

As to `OC(Cn1cncn1)(Cn1cncn1)c1ccc(F)cc1F` [FLUCONAZOLE], the Activity result was “is not an inhibitor [-]”.
